The text on this data set:
Analysis of a precipitated calcium carbonate having a median particle size of about 5 microns was done before and after being applied as a coating.

SMILES strings stand for the structures.

The molecule `O=C([O-])[O-].[Ca+2]` [precipitated calcium carbonate, calcium carbonate] displayed a particle size (after preparing a suspension and applying it to a gum pellet for an antacid gum product) of 4.9 microns. Moreover, the median particle size (before coating) was 5.1 microns.
